Columns and labels:
MMP-2 = target: T1, MMP-2 (Homo sapiens, UniProt P08253); experiment: In vitro MMP inhibition, Ki determination (fluorogenic substrate II); format: biochemical; details: value not in parenthesis; read-out: MMP-2 Ki
T1 construct: made in house; host or cells: MMP-2-transfected p2AHT2 cells
T1 sequence (P08253 110-660): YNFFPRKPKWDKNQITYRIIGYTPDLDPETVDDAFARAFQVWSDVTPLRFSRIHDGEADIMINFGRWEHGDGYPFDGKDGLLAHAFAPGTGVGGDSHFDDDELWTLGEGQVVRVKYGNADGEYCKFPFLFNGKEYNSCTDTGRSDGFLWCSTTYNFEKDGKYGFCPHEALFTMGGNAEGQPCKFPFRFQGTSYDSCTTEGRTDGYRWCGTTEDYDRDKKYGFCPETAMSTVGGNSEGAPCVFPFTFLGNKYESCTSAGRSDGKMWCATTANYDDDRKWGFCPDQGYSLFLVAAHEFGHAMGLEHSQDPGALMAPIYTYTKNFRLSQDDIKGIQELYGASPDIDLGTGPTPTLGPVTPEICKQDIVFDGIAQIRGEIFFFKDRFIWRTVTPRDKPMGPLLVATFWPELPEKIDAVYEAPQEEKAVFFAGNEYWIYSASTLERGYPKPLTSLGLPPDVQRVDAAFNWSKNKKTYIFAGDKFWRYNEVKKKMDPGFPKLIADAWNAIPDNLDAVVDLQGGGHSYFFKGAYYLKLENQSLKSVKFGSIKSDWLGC

MMP-14 = target: T2, MMP-14 (Homo sapiens, UniProt P50281); experiment: as above; format: biochemical; details: value not in parenthesis; read-out: MMP-14 Ki
T2 construct: The catalytic domain enzyme was expressed in E. coli inclusion bodies, solubilized in urea; made in house
Procedure, shortened: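 Apparent Ki was fitted with Morrison's equation from reaction rates at a single low enzyme level. Enzyme was APMA- or trypsin-activated refolded MMP-14 catalytic domain, buffered at pH 7.5 with 10 mM CaCl2.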

Row | Structure (SMILES) | Ki (MMP-2) [nM] | Ki (MMP-14) [µM]
1 | CCCCOc1ccc(N2CCN(S(=O)(=O)C3(C(=O)NO)CCN(c4nc5ccccc5o4)CC3)CC2)cc1 [Example 150] | 4.25 | 8.65
2 | O=C(NO)C1(S(=O)(=O)N2CCN(c3ccc(SC(F)(F)F)cc3)CC2)CCN(Cc2ccccc2)CC1 [Example 152] | 0.871 | 2.24
3 | O=C(NO)C1(S(=O)(=O)N2CCN(c3ccc(OCCCC(F)(F)F)cc3)CC2)CCN(C2CC2)CC1 [Example 153] | 0.502 | 6.77
4 | CCCCOc1ccc(N2CCN(S(=O)(=O)C3(C(=O)NO)CCN(c4cccnc4)CC3)CC2)cc1 [Example 154] | 1.07 | 3.6
5 | CCCCOc1ccc(N2CCN(S(=O)(=O)C3(C(=O)NO)CCN(c4ncc(CC)cn4)CC3)CC2)cc1 [Example 155] | 1.83 | 5.35

From patent US20050209278A1, “Piperidinyl- and piperazinyl-sulfonylmethyl hydroxamic acids and their use as protease inhibitors” (priority 2002, published 2005)
